Results on three compounds are retold here after patent publication US9676818B2, “Toll-like receptor 2-agonistic lipopeptides, and method of making the same” (University of Kansas, priority 2013, dated 2017).

Data set [1] has as its system anti-bovine α-lactalbumin IgG responses. The data set is described as follows: Rabbit immunization with bovine α-lactalbumin, antigen-specific IgG ELISA. It counts as in vivo. As to the method: All experiments were performed in accordance with institutional guidelines (University of Kansas IACUC permit #119-06) which specifically approved this study. All antigen/adjuvant preparations were entirely aqueous; no liposomal or emulsifying agents were used. Cohorts of adult female New Zealand White rabbits (n=4) were immunized intramuscularly in the flank region with (a) 100 μg of bovine α-lactalbumin in 0.2 mL saline, or (b) 100 μg of bovine α-lactalbumin plus 100 μg of compound 25 in 0.2 mL saline, or (d) 100 μg of bovine α-lactalbumin plus 100 μg of dual TLR2-agonistic PAM2CSK4 (control). Pre-immune test-bleeds were first obtained via venipuncture of the marginal vein of the ear. […] A final test-bleed was performed via the marginal vein of the ear on Day 38. Sera were stored at −80° C. until used.
Bovine α-lactalbumin-specific ELISAs were performed in 384-well format using automated liquid handling methods as described (Shukla, N. M. et al. Bioorg. Med. Chem. Lett. 2011, 21, 3232-3236). Examination of the affinity of antigen-specific IgG using chaotropic ELISA (Pullen, G. R. et al. J. Immunol. Methods 1986, 86, 83-87 and Macdonald, R. A. et al. J. Immunol. Methods 1988, 106, 191-194). […] Plates were then read at 450 nm using a SpectraMax M4 device (Molecular Devices, Sunnyvale, Calif.).

Another data set deals with human TLR2 (Homo sapiens (Human), UniProt O60603). Kind of data set: human TLR2-specific NF-κB reporter gene assay (HEK-Blue cells). It counts as cell-based. The following applies: for EC50: human TLR2-specific reporter gene assay, ND = no activity detected at 10 μM, read-out: TLR2-Agonistic Activity (EC50 in nM). The text has this:
The induction of NF-κB in a TLR2-specific reporter gene assay was quantified using HEK-BLUE™ cells as previously described (Wu, W. et al., J. Med. Chem. 2010, 53, 3198-3213). HEK293 cells stably transfected with either human TLR2 or murine TLR2 and alkaline phosphatase (sAP) were obtained from InvivoGen (San Diego, Calif.), and were maintained in HEK-BLUE™ Selection medium containing zeocin and normocin. Stable expression of secreted alkaline phosphatase (sAP) under control of NF-κB promoters is inducible by TLR2 agonists, and extracellular sAP in the supernatant is proportional to NF-κB induction. HEK-Blue cells were incubated at a density of ˜10^5 cells/mL in a volume of 80 μL/well, in 384-well, flat-bottomed, cell culture-treated microtiter plates until confluency was achieved, and then stimulated with serially-diluted aliquots of compounds for 12 h. sAP was assayed spectrophoto-metrically using an alkaline phosphatase-specific chromogen (present in the HEK-detection medium as supplied by the vendor) at 620 nm. For antagonism assays, HEK-Blue cells were incubated at a density of ˜10^5 cells/mL in a volume of 80 μL/well and stimulated with either PAM2CS (1 μg/mL) or lipoteichoic acid (1 μg/mL) in the presence of graded concentrations of the test compounds as described for TLR7 previously (Shukla, N. M.; et al., Bioorg. Med. Chem. Lett. 2009, 19, 2211-2214; Shukla, N. M. et al., Bioorg. Med. Chem. 2011, 19, 3801-3811).

A further data set has as its target TLR7 (Homo sapiens (Human), UniProt Q9NYK1). Kind of data set: primary human TLR-specific reporter gene assay, TLR7 cell line. It counts as cell-based. Particulars: relative to parent compounds.
Another data set is described as follows: Aqueous solubility. It counts as physicochemical.
Data set [2] can be described thus: Stability of aqueous stocks. It counts as physicochemical.

Sequence of human TLR2 (O60603 21-784): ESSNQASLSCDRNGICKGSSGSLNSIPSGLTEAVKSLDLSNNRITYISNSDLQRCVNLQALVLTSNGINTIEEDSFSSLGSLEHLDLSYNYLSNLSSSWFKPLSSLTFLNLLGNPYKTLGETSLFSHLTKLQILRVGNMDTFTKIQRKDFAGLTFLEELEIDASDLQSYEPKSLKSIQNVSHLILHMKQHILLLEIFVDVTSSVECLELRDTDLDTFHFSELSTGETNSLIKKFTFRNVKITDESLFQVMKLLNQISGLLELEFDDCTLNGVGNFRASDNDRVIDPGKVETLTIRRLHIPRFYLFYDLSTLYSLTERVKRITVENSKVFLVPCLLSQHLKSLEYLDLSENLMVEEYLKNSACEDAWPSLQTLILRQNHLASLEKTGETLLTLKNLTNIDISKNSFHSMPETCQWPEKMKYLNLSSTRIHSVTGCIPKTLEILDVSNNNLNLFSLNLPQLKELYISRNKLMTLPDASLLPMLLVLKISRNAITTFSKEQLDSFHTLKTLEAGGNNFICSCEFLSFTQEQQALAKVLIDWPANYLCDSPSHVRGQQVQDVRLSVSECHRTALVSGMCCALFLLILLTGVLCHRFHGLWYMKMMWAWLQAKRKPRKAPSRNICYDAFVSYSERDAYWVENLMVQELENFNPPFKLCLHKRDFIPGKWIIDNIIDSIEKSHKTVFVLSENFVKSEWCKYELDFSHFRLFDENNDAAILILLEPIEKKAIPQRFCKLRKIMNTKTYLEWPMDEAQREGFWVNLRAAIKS
Sequence of TLR7 (Q9NYK1 27-1049): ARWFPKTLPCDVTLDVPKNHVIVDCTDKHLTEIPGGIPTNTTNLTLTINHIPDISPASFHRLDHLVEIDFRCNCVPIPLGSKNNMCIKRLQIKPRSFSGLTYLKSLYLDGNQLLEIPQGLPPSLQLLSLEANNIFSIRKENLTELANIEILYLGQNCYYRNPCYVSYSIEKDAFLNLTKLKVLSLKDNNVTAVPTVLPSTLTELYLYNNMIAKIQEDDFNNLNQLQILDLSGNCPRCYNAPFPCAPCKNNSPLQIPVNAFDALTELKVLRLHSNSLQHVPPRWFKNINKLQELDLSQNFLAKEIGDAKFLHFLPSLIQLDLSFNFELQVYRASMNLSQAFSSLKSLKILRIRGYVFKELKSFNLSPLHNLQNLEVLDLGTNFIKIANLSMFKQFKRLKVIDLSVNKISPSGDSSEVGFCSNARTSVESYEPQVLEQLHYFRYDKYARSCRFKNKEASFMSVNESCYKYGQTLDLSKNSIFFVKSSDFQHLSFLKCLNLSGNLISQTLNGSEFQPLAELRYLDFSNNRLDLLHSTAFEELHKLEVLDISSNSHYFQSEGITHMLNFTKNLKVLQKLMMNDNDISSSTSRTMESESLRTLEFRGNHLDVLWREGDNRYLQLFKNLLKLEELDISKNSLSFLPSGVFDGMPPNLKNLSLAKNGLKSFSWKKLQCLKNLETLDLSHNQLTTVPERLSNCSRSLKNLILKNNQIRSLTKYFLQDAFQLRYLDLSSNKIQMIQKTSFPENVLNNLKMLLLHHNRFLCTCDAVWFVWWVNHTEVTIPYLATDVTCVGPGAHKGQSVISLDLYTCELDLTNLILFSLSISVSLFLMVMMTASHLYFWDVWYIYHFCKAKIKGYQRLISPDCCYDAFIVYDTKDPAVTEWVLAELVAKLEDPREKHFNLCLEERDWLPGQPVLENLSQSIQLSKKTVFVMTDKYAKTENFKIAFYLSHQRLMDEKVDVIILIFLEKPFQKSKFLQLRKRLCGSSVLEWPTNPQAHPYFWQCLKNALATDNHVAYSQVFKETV

PAM2CSK4 [reference compound]: in data set [1] (New Zealand White rabbits, direct comparison with glucopyranosyl lipid A), the adjuvanticity entry is given as “highly adjuvantic”.

For `CCCCCCCCCCCCCCCCOC(=O)NCCSC[C@H](NC(C)=O)C(=O)N[C@@H](CO)C(=O)NCc1ccc(Cn2c(CCCC)nc3c(N)nc4ccccc4c32)cc1` [Compound 54, Hexadecyl(2-(((R)-2-acetamido-3-(((S)-1-((4-((4-amino-2-butyl-1H-imidazo[4,5-c]quinolin-1-yl)methyl)benzyl)amino)-3-hydroxy-1-oxopropan-2-yl)amino)-3-oxopropyl)thio)ethyl)carbamate], at human TLR2 (hTLR2 reporter gene assay), the “hTLR2-agonistic activity in words” value is reported as “less active than their parent compounds”. Besides, the EC50 at human TLR2 came out at 221 nM. The “activity in TLR7 cell line” value at TLR7 is reported as “less active than their parent compounds”.

`CCCCCCCCCCCCCCCC(=O)OCCSC[C@H](NC(C)=O)C(=O)N[C@@H](COC(=O)[C@@H](N)CCCCN)C(=O)OC.Cl.Cl` [Compound 25, 2-(((R)-2-Acetamido-3-(((S)-3-(((S)-2,6-diaminohexanoyl)oxy)-1-methoxy-1-oxopropan-2-yl)amino)-3-oxopropyl)thio)ethyl palmitate]: on human TLR2, the EC50 was 6.81 nM. For the same compound, the water solubility entry in “Aqueous solubility” was “exceptionally water soluble”. In addition, the “induction of anti-bovine α-lactalbumin IgG responses” value in data set [1] (rabbits, prime+single-boost model, FIG. 2) is “excellent induction”. In data set [2], the “stability of aqueous stocks” value is “unstable”.
